Some test systems named below: A498 renal; ACHN renal; MDA-MB-435; MOLT-4 leukemia; RXF 393 renal; SF-295 CNS; UO-31 renal; CAKI-1 renal; HCT-116 colon; RPMI-8226 leukemia.
What all share (assay): NCI-60 cell line screen, 48 h

Structures are written as SMILES.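 Five concentrations, 48 hours, 96-well plates. GI50 = concentration required for 50% inhibition of growth. TGI: total growth inhibition.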

For eight compounds, GI50 and TGI results are on record in PubChem BioAssay (NCI).

In the case of `Cc1cc(N2CCOCC2)nc(N(CCNc2ccnc3cc(Cl)ccc23)Cc2ccco2)n1`, the GI50 in the test with A498 renal was 2.47 µM; in the test on ACHN renal, 3.46 µM; with MDA-MB-435 it was 3.27 µM; with MOLT-4 leukemia, 3.41 µM; in the test on RXF 393 renal, 1.64 µM; with SF-295 CNS it was 1.68 µM. For the same compound, in the test on UO-31 renal, the GI50 is 1.99 µM. Besides, the TGI is 12.6 µM in the test on A498 renal; 15.3 µM in the test on ACHN renal; 15.2 µM in the test on MDA-MB-435; greater than 100 µM in the test on MOLT-4 leukemia; 4.29 µM with RXF 393 renal; 3.64 µM in the test on SF-295 CNS. Besides, the TGI in the test with UO-31 renal turned out to be 6.97 µM.
`CCOC(=O)CC(=O)N(c1ccc(OC)cc1)C(C(=O)OC)c1ccccc1` (stereo not given): the TGI with ACHN renal, with CAKI-1 renal, in the test with HCT-116 colon, in the test on MDA-MB-435, in the test with RPMI-8226 leukemia and with SF-295 CNS was greater than 100 µM throughout. This compound also gave a TGI in the test on UO-31 renal greater than 100 µM.
In the case of `COC(=O)C1=C2C3=C(C(=O)c4ccccc4C3=O)N(Cc3ccccc3)C2(OC(C)=O)C=CC1=O` (stereo not given), the GI50 was 8.4 µM in the test with ACHN renal; 1.89 µM in the test on CAKI-1 renal; 6.25 µM in the test on HCT-116 colon; 9.52 µM in the test with MDA-MB-435; 0.846 µM in the test on MOLT-4 leukemia; 1.09 µM in the test on RPMI-8226 leukemia. For the same compound, the GI50 with SF-295 CNS is 6.3 µM; in the test with UO-31 renal, 18.2 µM. Also, the TGI in the test with ACHN renal is 26.4 µM; with CAKI-1 renal, 13.2 µM; in the test on HCT-116 colon, 24.8 µM; with MDA-MB-435 it was 25.3 µM; in the test with MOLT-4 leukemia it was greater than 100 µM; in the test on RPMI-8226 leukemia, 8.83 µM. The TGI was 29.3 µM in the test with SF-295 CNS and greater than 100 µM in the test with UO-31 renal.
Regarding `C[C@H]1O[C@@H](O[C@H]2[C@@H](O)C[C@H](O[C@H]3[C@@H](O)C[C@H](O[C@H]4CC[C@]5(C)C6C[C@@H](O)[C@]7(C)[C@@H](C8=CC(=O)OC8)CC[C@]7(O)C6CC[C@@H]5C4)O[C@@H]3C)O[C@@H]2C)C[C@H](O)[C@@H]1O` (stereo not given in full), the GI50 with ACHN renal is 0.022 µM; in the test on CAKI-1 renal, 0.0857 µM; in the test with HCT-116 colon, 0.0207 µM; in the test on MDA-MB-435, 0.135 µM; with MOLT-4 leukemia, 0.0176 µM; in the test on RPMI-8226 leukemia, 0.117 µM. The GI50 was 0.0634 µM in the test with RXF 393 renal, 0.0595 µM with SF-295 CNS and 0.0836 µM in the test on UO-31 renal. Moreover, the TGI with ACHN renal stood at 0.115 µM; with CAKI-1 renal, 0.261 µM; in the test on HCT-116 colon, 0.0972 µM; in the test on MDA-MB-435 it was 0.418 µM; with MOLT-4 leukemia it was 0.147 µM; in the test with RPMI-8226 leukemia it was 0.377 µM. For the same compound, the results for the TGI in the test with RXF 393 renal, with SF-295 CNS and in the test on UO-31 renal were 0.198 µM, 0.233 µM and 0.166 µM, respectively.
Turning to `NCC(=O)Nc1ccc(-n2nc(C(F)(F)F)cc2-c2ccc3c(ccc4ccccc43)c2)cc1`, the GI50 in the test with A498 renal was 1.86 µM; in the test on ACHN renal, 1.23 µM; in the test on CAKI-1 renal, 1.17 µM; in the test on HCT-116 colon it was 0.761 µM; in the test on MOLT-4 leukemia, 0.809 µM; in the test with RPMI-8226 leukemia, 1.29 µM. The GI50 was 1.38 µM with RXF 393 renal, 1.16 µM in the test on SF-295 CNS and 1.32 µM in the test on UO-31 renal. Besides, the TGI came out at 3.84 µM in the test with A498 renal; 2.54 µM in the test on ACHN renal; 2.66 µM in the test with CAKI-1 renal; 2 µM in the test on HCT-116 colon; 4.01 µM in the test on MOLT-4 leukemia; 4.08 µM in the test with RPMI-8226 leukemia. The TGI with RXF 393 renal worked out at 2.75 µM; in the test with SF-295 CNS it was 2.6 µM; in the test with UO-31 renal it was 2.61 µM.
Consider `CC1C(=O)CCC1C(Sc1ccccc1)(Sc1ccccc1)Sc1ccccc1` (stereo not given), for which the TGI in the test on A498 renal was greater than 100 µM; in the test on ACHN renal, greater than 100 µM; in the test on CAKI-1 renal, greater than 100 µM; in the test with HCT-116 colon, greater than 100 µM; in the test on MOLT-4 leukemia, 37.9 µM; in the test with RPMI-8226 leukemia it was 40.6 µM. The TGI in the test on RXF 393 renal was 51.3 µM; in the test on SF-295 CNS, greater than 100 µM; in the test with UO-31 renal, 5.9 µM.
Take `CCOC(=O)/C(=C/c1cc(OC)ccc1OC)CC(=O)O`: the TGI is greater than 100 µM in the test with A498 renal; greater than 100 µM in the test on ACHN renal; greater than 100 µM in the test with CAKI-1 renal; greater than 100 µM with HCT-116 colon; greater than 31.6 µM in the test on MOLT-4 leukemia; greater than 31.6 µM in the test on RPMI-8226 leukemia. In addition, the TGI in the test on RXF 393 renal, with SF-295 CNS and with UO-31 renal was greater than 100 µM in each case.
Consider `Nc1ccccc1S(=O)c1ccccc1` (stereo not given), for which the TGI is greater than 100 µM in the test with A498 renal; greater than 100 µM in the test on ACHN renal; greater than 1 µM with CAKI-1 renal; greater than 100 µM in the test with HCT-116 colon; greater than 100 µM in the test on MOLT-4 leukemia; greater than 100 µM in the test with RPMI-8226 leukemia. Also, the TGI with RXF 393 renal, in the test with SF-295 CNS and with UO-31 renal was greater than 100 µM in each case.
